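Results reflect a 48-hour exposure of cells in 96-well plates to compound at five concentrations. At the TGI there is no net growth.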
Assays:
Experiment in all cases: NCI-60 cell line screen, 48 h
[1] = tested on: SF-295 CNS
[2] = tested on: OVCAR-5 ovarian
[3] = tested on: IGROV1 ovarian
[4] = tested on: HL-60(TB) leukemia
[5] = tested on: UACC-257 melanoma
[6] = tested on: MDA-MB-435
[7] = tested on: HOP-62 NSCLC
[8] = tested on: SK-MEL-28 melanoma
[9] = tested on: BT-549 breast
[10] = tested on: EKVX NSCLC
[11] = tested on: SK-MEL-2 melanoma
[12] = tested on: 786-0 renal
[13] = tested on: KM12 colon
[14] = tested on: SF-268 CNS
[15] = tested on: SK-MEL-5 melanoma
[16] = tested on: HCT-15 colon
[17] = tested on: SR leukemia
[18] = tested on: A498 renal
[19] = tested on: RPMI-8226 leukemia
[20] = tested on: HOP-92 NSCLC
[21] = tested on: OVCAR-8 ovarian
[22] = tested on: HT29 colon
[23] = tested on: COLO 205 colon
[24] = tested on: LOX IMVI melanoma
[25] = tested on: ACHN renal
[26] = tested on: HS 578T breast
[27] = tested on: SK-OV-3 ovarian
[28] = tested on: SNB-75 CNS
[29] = tested on: MDA-MB-231 breast
[30] = tested on: MDA-N
[31] = tested on: UO-31 renal
[32] = tested on: CAKI-1 renal
[33] = tested on: SN12C renal
[34] = tested on: MALME-3M melanoma
[35] = tested on: T-47D breast
[36] = tested on: NCI/ADR-RES ovarian
[37] = tested on: HCT-116 colon
[38] = tested on: MOLT-4 leukemia
[39] = tested on: U251 CNS
[40] = tested on: A549 NSCLC
[41] = tested on: PC-3 prostate
[42] = tested on: TK-10 renal
[43] = tested on: SW-620 colon
[44] = tested on: M14 melanoma
[45] = tested on: NCI-H460 lung
[46] = tested on: OVCAR-4 ovarian
[47] = tested on: NCI-H226 lung
[48] = tested on: OVCAR-3 ovarian
[49] = tested on: RXF 393 renal
[50] = tested on: NCI-H522 lung
[51] = tested on: DU-145 prostate
[52] = tested on: UACC-62 melanoma
[53] = tested on: SF-539 CNS
[54] = tested on: HCC-2998 colon
[55] = tested on: SNB-19 CNS
[56] = tested on: MCF7 breast
[57] = tested on: K-562 leukemia
[58] = tested on: NCI-H23 lung
[59] = tested on: CCRF-CEM leukemia

`COc1cc2ccc(C(C)NCC#N)cc2cc1OC` (stereo not given) gave a TGI [1] greater than 100 µM, a TGI [2] greater than 100 µM and a TGI [3] greater than 100 µM. The TGI [4] was greater than 100 µM, the TGI [5] was greater than 100 µM and the TGI [6] was greater than 100 µM. The TGI [7] was greater than 100 µM, the TGI [8] was greater than 100 µM and the TGI [9] was greater than 100 µM. The TGI [10] was greater than 100 µM, the TGI [11] was greater than 100 µM and the TGI [12] was greater than 100 µM. The TGI [13] was greater than 100 µM, the TGI [14] was greater than 100 µM and the TGI [15] was greater than 100 µM. The TGI [16] was greater than 100 µM, the TGI [17] was greater than 100 µM and the TGI [18] was greater than 100 µM. The TGI [19] was greater than 100 µM, the TGI [20] was greater than 100 µM and the TGI [21] was greater than 100 µM. The TGI [22] was greater than 100 µM, the TGI [23] was greater than 100 µM and the TGI [24] was greater than 100 µM. For the same compound, the TGI [25] was greater than 100 µM, the TGI [26] was greater than 100 µM and the TGI [27] was greater than 100 µM. The TGI [28] was greater than 100 µM, the TGI [29] was greater than 100 µM and the TGI [30] was greater than 100 µM. The TGI [31] was greater than 100 µM, the TGI [32] was greater than 100 µM and the TGI [33] was greater than 100 µM. For the same compound, the TGI [34] was greater than 100 µM, the TGI [35] was greater than 100 µM and the TGI [36] was greater than 100 µM. For the same compound, the TGI [37] was greater than 100 µM, the TGI [38] was greater than 100 µM and the TGI [39] was greater than 100 µM. The TGI [40] was greater than 100 µM, the TGI [41] was greater than 100 µM and the TGI [42] was greater than 100 µM. The TGI [43] was greater than 100 µM, the TGI [44] was greater than 100 µM and the TGI [45] was greater than 100 µM. The TGI [46] was greater than 100 µM, the TGI [47] was greater than 100 µM and the TGI [48] was greater than 100 µM. For the same compound, the TGI [49] was greater than 100 µM, the TGI [50] was greater than 100 µM and the TGI [51] was greater than 100 µM. The TGI [52] was greater than 100 µM, the TGI [53] was greater than 100 µM and the TGI [54] was greater than 100 µM. It also gave a TGI [55] greater than 100 µM, a TGI [56] greater than 100 µM and a TGI [57] greater than 100 µM.
`CCOC(=O)C(NC(=O)c1ccccc1)(Nc1ccc(S(=O)(=O)Nc2cc(C)on2)cc1)C(F)(F)F` (stereo not given) was tested, and the TGI [1] was greater than 100 µM, the TGI [2] was greater than 100 µM and the TGI [3] was greater than 100 µM. It also gave a TGI [4] greater than 100 µM, a TGI [5] greater than 10 µM and a TGI [6] greater than 100 µM. The TGI [7] was greater than 100 µM, the TGI [8] was greater than 100 µM and the TGI [9] was greater than 100 µM. For the same compound, the TGI [10] was greater than 100 µM, the TGI [11] was greater than 100 µM and the TGI [58] was greater than 10 µM. The TGI [12] was greater than 100 µM, the TGI [13] was greater than 100 µM and the TGI [14] was greater than 100 µM. It also gave a TGI [15] greater than 100 µM, a TGI [16] greater than 100 µM and a TGI [17] greater than 100 µM. It also gave a TGI [19] greater than 100 µM, a TGI [20] greater than 100 µM and a TGI [21] greater than 100 µM. It also gave a TGI [22] greater than 100 µM, a TGI [23] greater than 100 µM and a TGI [24] greater than 100 µM. The TGI [25] was greater than 100 µM, the TGI [26] was greater than 100 µM and the TGI [27] was greater than 100 µM. For the same compound, the TGI [28] was greater than 100 µM, the TGI [29] was greater than 100 µM and the TGI [30] was greater than 100 µM. It also gave a TGI [31] greater than 100 µM, a TGI [32] greater than 100 µM and a TGI [33] greater than 100 µM. The TGI [34] was greater than 100 µM, the TGI [35] was greater than 100 µM and the TGI [36] was greater than 100 µM. The TGI [37] was greater than 100 µM, the TGI [38] was greater than 100 µM and the TGI [59] was greater than 100 µM. It also gave a TGI [39] greater than 100 µM, a TGI [40] greater than 100 µM and a TGI [41] greater than 100 µM. It also gave a TGI [42] greater than 100 µM, a TGI [43] greater than 100 µM and a TGI [44] greater than 100 µM. The TGI [45] was greater than 100 µM, the TGI [46] was greater than 10 µM and the TGI [47] was greater than 100 µM. It also gave a TGI [48] greater than 100 µM, a TGI [49] greater than 100 µM and a TGI [50] greater than 100 µM. For the same compound, the TGI [51] was greater than 100 µM, the TGI [52] was greater than 100 µM and the TGI [53] was greater than 100 µM. For the same compound, the TGI [54] was greater than 100 µM, the TGI [55] was greater than 100 µM and the TGI [56] was greater than 100 µM. For the same compound, the TGI [57] was greater than 100 µM.

Reference: PubChem BioAssay (NCI)
